Consider 2 substances from patent US20090215650A1, “SUBSTRATES WITH STABLE SURFACE CHEMISTRY FOR BIOLOGICAL MEMBRANE ARRAYS AND METHOD FOR FABRICATING THEREOF” (priority 2002, published 2009).

The target in experiment [1] is Neurotensin receptor subtype I (human, NTR1) (Homo sapiens, UniProt P30989). Description: BT-NT binding to NTR1 arrays on coated glass slides, competition with unlabeled neurotensin. The conditions noted are these: 2 nM BT-NT; for binding specificity of BT-NT: competition with 4 μM unlabeled neurotensin.
Procedure: Neurotensin receptor subtype I (human, NTR1) was purchased from Perkin Elmer Life Sciences (Boston, Mass.) and was received as a membrane associated suspension in a buffer. Printing was carried out using a quill-pin printer (Cartesian Technologies Model PS 5000) equipped with software for programmable aspiration and dispensing. After printing the arrays were incubated in a humid chamber at room temperature for one hour, and then used for ligand binding experiments. Two different binding solutions, 2 nM BT-NT in binding buffer in either the absence or presence of neurotensin, were used to examine the total binding of fluorescently labeled neurotensin (2 nM BT-NT), and the specific inhibition of the binding of BT-NT in the presence of 4 μM unlabeled neurotensin. The binding buffer contained 50 mM Tris-HCl, pH 7.4, 10 mM MgCl2, 1 mM EDTA, 0.1% BSA. The incubation time for binding was one hour. After incubation, the slides were rinsed, dried, and examined using a Genipix scanner.
Glass slides were coated by incubating the slide with a 3 ml solution containing 1 mg/ml polymer (poly-lysine, 46 kDa, or polyethyleneimine, 50 kDa) in 0.1×PBS buffer for 30 minutes at room temperature, followed by rinsing with water and drying under nitrogen. […] Using a Telechem quill pin CMP5, we fabricated GPCR arrays.
Neurotensin receptor subtype 1 (human, NTR1) was purchased from Perkin Elmer Life Sciences (Boston, Mass.) and was received as a membrane associated suspension in a buffer. Printing was carried out using a quill-pin printer (Cartesian Technologies Model PS 5000) equipped with software for programmable aspiration and dispensing. After printing the arrays were incubated in a humid chamber at room temperature for one hour, and then used for ligand binding experiments. […] After incubation, the slides were rinsed, dried, and imaged in a fluorescence scanner. […]
Experiment [2] concerns the target streptavidin (Streptomyces avidinii, UniProt P22629). Briefly: Binding of cy3-streptavidin to biotin-x-DHPE lipid arrays in presence of BSA. To be noted: BSA 0.01%-1%; DPPC/DMPC/2% biotin-x-DHPE arrays on GAPS slide. The procedure: Seven 5×5 arrays of DPPC/DMPC/2% biotin-x-DHPE were printed onto a single Corning GAPS slide (data not shown). After incubation 3 sets of lipid arrays were pre-incubated with TR-BSA before the addition of Cy3-streptavidin. A second set of 3 arrays was incubated with TR-BSA together with cy3-streptavidin, while one array was covered with a solution of cy3-streptavidin. After 30 minutes the slides were rinsed, dried and imaged. The cy5 channel signal was used to monitor the adsorption of TR-BSA, and the cy3 channel signal was used to monitor the binding of cy3-streptavidin.

Setting [3] is: two reactive surfaces (epoxy silane, thiol-silane).

Chain of Neurotensin receptor subtype I (human, NTR1) (P30989 whole entry): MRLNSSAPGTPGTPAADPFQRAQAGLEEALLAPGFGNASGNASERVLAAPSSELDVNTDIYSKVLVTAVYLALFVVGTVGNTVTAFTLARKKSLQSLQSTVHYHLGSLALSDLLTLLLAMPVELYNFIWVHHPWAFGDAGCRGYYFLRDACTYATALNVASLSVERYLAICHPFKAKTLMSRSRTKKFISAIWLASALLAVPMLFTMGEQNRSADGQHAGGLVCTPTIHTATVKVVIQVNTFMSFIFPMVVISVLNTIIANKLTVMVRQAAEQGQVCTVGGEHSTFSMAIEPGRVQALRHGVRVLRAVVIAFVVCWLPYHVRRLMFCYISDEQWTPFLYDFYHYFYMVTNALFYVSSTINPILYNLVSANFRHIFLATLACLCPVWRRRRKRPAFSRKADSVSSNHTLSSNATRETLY
Chain of streptavidin (P22629 25-183, species assumed): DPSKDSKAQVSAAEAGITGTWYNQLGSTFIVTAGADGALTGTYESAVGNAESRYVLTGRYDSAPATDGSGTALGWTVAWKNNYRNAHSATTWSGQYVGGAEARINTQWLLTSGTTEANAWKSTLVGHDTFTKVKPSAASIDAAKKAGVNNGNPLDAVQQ

Consider Bodipy-TMR-neurotensin [BT-NT], for which the “binding specificity of BT-NT” value in experiment [1] (poly-lysine and polyethyleneimine surfaces (both)) was around 90%; in experiment [1] (setting [3]), 75-90%. Moreover, the total binding signal entry in experiment [1] (setting [3]) is given as “relatively low”.
Regarding bovine serum albumin [BSA], in experiment [2], the “effect on background level” value is given as “reduces the background level in most cases” and the “effect on binding specificity of cy3-streptavidin” value is reported as “does not significantly decrease the binding specificity”.
